Measurements as given in the PolyMetriX glass transition set.
± gives the standard deviation of the reports.

Row | Structure (SMILES) | glass transition temperature
1 | *Nc1ccc(C(=O)c2ccc(NC(=O)c3ccc(C(*)=O)cc3)cc2)cc1 (repeat unit) | 300.00 °C
2 | *CC(COc1ccccc1)O* (repeat unit) | 42.00 °C
3 | *CC(*)c1ccc(C(=O)CCC)cc1 (repeat unit) | 74.00 °C
4 | *O[Si](C)(C)CCCCCCCC[Si](*)(C)C (repeat unit) | -88.00 °C
5 | *C1C2C/C(=C\C)C(C2)C1* (repeat unit) | 61.40 °C
6 | *Nc1cccc(NC(=O)CCCCC(=O)Nc2ccc(C(=O)NC(*)=S)cc2)c1 (repeat unit) | 267.00 °C
7 | *NC1CCC(CCC2CCC(NC(=O)CCCCCCCCC(*)=O)CC2)CC1 (repeat unit) | 116.00 °C
8 | *CC(*)OC(=O)OCCC(F)(F)C(F)(F)C(F)(F)C(F)(F)C(F)(F)C(F)(F)F (repeat unit) | 37.00 °C
9 | *CCCP(CCCCCCCC)CCCNC(=O)CCCCC(=O)N* (repeat unit) | 12.00 °C
10 | *CC(C)(C)CO* (repeat unit) | -50.00 °C
11 | *O[Si](*)(C)CCCCCCOc1ccc(C(=O)Oc2ccc(OC)cc2)cc1 (repeat unit) | -2.00 °C
12 | *CCCCOC(=O)CCCCC(=O)OCCCCOC(=O)c1ccc(C(=O)O*)cc1 (repeat unit) | -20.00 °C
13 | *O[Si](C)(C)O[Si](C)(C)Oc1ccc(-c2ccc(*)cc2)cc1 (repeat unit) | -4.00 °C
14 | *CCCN(*)C (repeat unit) | -37.50 °C
15 | *c1ccc(-c2ccc([Si](*)(C)C)s2)s1 (repeat unit) | 45.00 °C
16 | *CC(CCl)O* (repeat unit) [Poly(epichlorohydrin)] | -22.22 ± 1.5 °C
17 | *CC(*)(C)C(=O)OCCCC1CCCCC1 (repeat unit) | 60.00 °C
18 | *CC(*)(C)C(=O)OCCCCCCOc1ccc(C(=O)Oc2ccc3ccc(=O)oc3c2)cc1 (repeat unit) | 102.00 °C
19 | *CC(c1ccccc1)C1C(=O)N(C)C(=O)C1* (repeat unit) | 205.00 °C
20 | *CC(CC)C(CC)COC(=O)c1ccc(C(=O)O*)cc1 (repeat unit) | 32.00 °C
21 | *CC(C)(C)COC(=O)O* (repeat unit) | 25.00 °C
22 | *CC(*)(C#N)C(=O)OCC (repeat unit) | 115.00 °C
23 | *CCc1ccc(CCNC(=O)CCCCCCCCCCCCC(=O)N*)cc1 (repeat unit) | 93.00 °C
24 | *Nc1cc([N+](=O)[O-])c(NC(=O)CCCCCCCCCCC(*)=O)cc1/C=C/c1ccc(N(C)C)cc1 (repeat unit) | 144.00 °C
25 | *Cc1ccc(C(C)(CCC)c2ccc(Cn3c(=O)c4cc5c(=O)n(*)c(=O)c5cc4c3=O)o2)o1 (repeat unit) | 134.00 °C
26 | *OS(=O)(=O)c1ccc(*)cc1 (repeat unit) | 119.00 °C
27 | *c1nc(C)nc(N(CCCCCCN(*)c2ccccc2)c2ccccc2)n1 (repeat unit) | 67.00 °C

The next lines start with the values.

Row | glass transition temperature | Structure (SMILES)
28 | 163.00 °C | *Oc1ccc(/C=N/N=C/c2ccc(Oc3ccc(C(C)(C)c4ccc(*)cc4)cc3)cc2)cc1 (repeat unit)
29 | 116.00 °C | *c1ccc2c3ccc(-c4ccc(-c5ccc(-c6ccc(*)s6)c6nccnc56)s4)cc3n(C(CCCCCCCC)CCCCCCCC)c2c1 (repeat unit)
30 | 151.00 °C | *c1ccc2cc(OC(=O)c3cccc(C(=O)Oc4ccc5cc(-c6nc7ccccc7nc6*)ccc5c4)c3)ccc2c1 (repeat unit)
31 | 211.00 °C | *Oc1ccc(C(C)(C)c2ccc(OC(=O)c3ccc(C(C)(CC)c4ccc(C(*)=O)cc4)cc3)cc2)cc1 (repeat unit)
32 | 181.00 °C | *c1ccc2c(c1)C(=O)N(c1ccc(-c3ccc(N4C(=O)c5ccc(C(*)(C(F)(F)F)C(F)(F)F)cc5C4=O)c(OC(=O)/C=C/c4ccccc4)c3)cc1OC(=O)/C=C/c1ccccc1)C2=O (repeat unit)
33 | 175.00 °C | *Sc1ccc(C(=O)c2ccc(C(C)(C)c3ccc(C(=O)c4ccc(*)cc4)cc3)cc2)cc1 (repeat unit)
34 | 114.00 °C | *Oc1ccc(C(=O)c2cccc(C(=O)c3ccc(Oc4cccc(Cc5cccc(*)c5)c4)cc3)c2)cc1 (repeat unit)
35 | 175.00 °C | *Oc1ccc(Oc2ccc(C(=O)c3ccccc3-c3ccccc3C(=O)c3ccc(*)cc3)cc2)cc1 (repeat unit)
36 | 274.00 °C | *c1ccc(Oc2ccc3ccccc3c2-c2c(Oc3ccc(N4C(=O)c5ccc(NC(=O)Nc6ccc(Oc7ccc(NC(=O)Nc8ccc9c(c8)C(=O)N(*)C9=O)cc7)cc6)cc5C4=O)cc3)ccc3ccccc23)cc1 (repeat unit)
37 | 250.00 °C | *C(=O)Nc1ccc(Oc2ccc(NC(=O)c3ccc4c(c3)C(=O)N(C3CCC(CC5CCC(N6C(=O)c7ccc(*)cc7C6=O)CC5)CC3)C4=O)cc2)cc1 (repeat unit)
38 | 239.00 °C | *C(=O)Nc1ccc(Oc2ccccc2-c2ccccc2Oc2ccc(NC(=O)c3ccc4c(c3)C(=O)N(c3ccc(Oc5ccc(-c6ccc(Oc7ccc(N8C(=O)c9ccc(*)cc9C8=O)cc7)cc6)cc5)cc3)C4=O)cc2)cc1 (repeat unit)
39 | 305.00 °C | *c1ccc(Oc2ccc(-c3nc4cc(Oc5ccc(NC(=O)c6cc(C(=O)Nc7ccc(Oc8ccc9nc(-c%10ccc([N+](=O)[O-])cc%10)c(*)nc9c8)cc7)cc(N7C(=O)c8ccccc8C7=O)c6)cc5)ccc4nc3-c3ccc([N+](=O)[O-])cc3)cc2)cc1 (repeat unit)
40 | 253.00 °C | *C(=O)Nc1ccc(Cc2ccc(NC(=O)c3ccc4c(c3)C(=O)N(c3ccc(-c5sc(-c6ccc(N7C(=O)c8ccc(*)cc8C7=O)cc6)c(-c6ccccc6)c5-c5ccccc5)cc3)C4=O)cc2)cc1 (repeat unit)
41 | 290.00 °C | *c1ccc(Oc2ccc(-c3nc4cc(S(=O)(=O)c5ccc6nc(-c7ccccc7)c(*)nc6c5)ccc4nc3-c3ccccc3)cc2)cc1 (repeat unit)
42 | 229.00 °C | *C(=O)c1ccc2c(c1)C(=O)N(c1ccc(/C=C/c3ccc(N4C(=O)c5ccc(*)cc5C4=O)cc3S(=O)(=O)[O][Na])c(S(=O)(=O)[O][Na])c1)C2=O (repeat unit)
43 | 198.00 °C | *C(=O)c1ccc2c(c1OCc1ccccc1[N+](=O)[O-])C(=O)N(c1ccc(Oc3ccc(N4C(=O)c5ccc(*)c(OCc6ccccc6[N+](=O)[O-])c5C4=O)cc3)cc1)C2=O (repeat unit)
44 | 258.00 °C | *c1ccc(C(=O)Nc2ccc(Oc3ccc(S(=O)(=O)c4ccc(Oc5ccc(NC(=O)c6ccc(N7C(=O)c8ccc(-c9ccc%10c(c9)C(=O)N(*)C%10=O)cc8C7=O)cc6)cc5)cc4)cc3)cc2)cc1 (repeat unit)
45 | 195.00 °C | *CCCC(=O)Nc1ccc(Cc2ccc(NC(=O)CCCN3C(=O)c4ccc(C(=O)c5ccc6c(c5)C(=O)N(*)C6=O)cc4C3=O)cc2)cc1 (repeat unit)
46 | 227.00 °C | *Oc1ccc(C2(c3ccc(Oc4ccc(/C=N/N=C/c5ccc(*)cc5)cc4)cc3)c3ccccc3-c3ccccc32)cc1 (repeat unit)
